The text below walks through data of paper PMC6695845 (Molecules, 2019).

Several values for one entry are separate records, joined by “and”; a condition that tells them apart may be missing. Equal entries are not always repeated. Structures can show the parent of a compound that is named as a salt. Where two headings read alike, the source gives them in different places.

For data set [1], the target named is T1, human α4β2 nAChR (Homo sapiens, UniProt P17787+P43681). Nature of the data set: [3H]cytisine competition binding on membrane homogenates of SH-EP-hα4β2 clonal cells. Conditions: mean ± SEM of four experiments. Further details: expressed in transfected cells. As to the method: First, we determined the half maximal inhibitory concentration (IC50) of the synthesized molecules for human α4β2 nAChR using [^3H]-cytisine ([^3H-Cyt]) as a radioligand. It is well known that [^3H-Cyt] binds to the agonist (orthosteric) site of α4β2 nACRs.
Figure 4 Effects of phenylpyrrolidine derivatives on binding of [^3H]cytisine to human α4β2 nAChRs. Data points represent the mean ± SEM of four experiments. Each experiment was carried out in triplicate. The radioligand concentration in all displacement studies was 1 nM. The concentration-inhibition data was analyzed non-linearly.
Membrane homogenates for [^3H]-Cyt binding studies were prepared from the SH-EP-h α4β2 clonal cell line, which express human α4β2 nAChRs. Cells were maintained in Dulbecco’s modified Eagle’s medium (Invitrogen, UK) supplemented with 5% fetal serum, 10% horse serum, 2 mM L-glutamine, 10 IU/mL penicillin, 10 μg/mL streptomycin, 2.5 μg/mL amphotericin-B, 0.25 mg/mL zeocin, and 0.13 mg/mL hygromycin.
Competition binding studies were performed on membrane homogenates prepared SH-EP-hα4β2 clonal cell line, using [^3H]cyt (PerkinElmer, UK), as previously described. Membrane homogenates were incubated at a final protein concentration of 30 to 50 µg per assay tube in a final volume of 250 µL of binding saline ([…]: 120 NaCl, 5 KCl, 1 MgCl2, 2.5 CaCl2, 50 Tris, pH 7.0) for 75 min at 4 °C with 1 nM [^3H]cyt. […] Bound and free fractions were separated by rapid filtration through Whatman GF/C filters presoaked in binding saline supplemented with 0.1% polyethyleneimine. Radioactivity was quantified by liquid scintillation spectrometry.

For data set [2], the target named is T1, human α4β2 nAChR. Nature of the data set: two-electrode voltage clamp on human α4β2 nAChR expressed in Xenopus laevis oocytes. Further details: expressed in transfected cells; host or cells: Xenopus laevis oocytes (nuclear cDNA injection). Type of data set: cell-based. Conditions: for agonist profile at human α4β2 nAChR: in words; for Imax: maximal current normalized to response to 1 mM ACh, mean ± SEM; for Emax: read-out: maximal response (efficacy) as % of the ACh Imax. The method, then: The functional effects of our compounds were tested on α4β2 nAChR heterologously expressed in Xenopus laevis oocytes. Experiments were carried out by using the two-electrode voltage clamp procedure.
Figure 5 Interaction of phenylpyrrolidine derivatives with human α4β2 nicotinic receptors expressed in Xenopus laevis oocytes. Whole cell currents in response to agonist application were measured by a two-electrode voltage clamp. Concentration-response curves show activation of whole cell currents by compounds 1, 2, 3, and 4. Each point represents data from four to five cells, normalized to the amplitude of the maximal responses of ACh, which was stimulated by 1 mM of ACh. The data are fitted to a single component Hill curve.
The α4β2 nAChRs (wild type) were expressed heterologously in defolliculated oocytes from Xenopus laevis, which were dissected from adult female X. laevis frogs (Nasco, Fort Atkinson, WI, USA). The Oxford Brookes University Animal Research Committee, in accordance with the guidelines of the 1986 Scientific Procedures Act of the United Kingdom, approved the care and use of X. laevis frogs in this study. A mixture of 1:1 of human of α4 and β2 subunits for α4β2 subtype cDNAs were injected into the nuclei of oocytes in a volume of 23 nL/oocyte by using a Nanoject Automatic Oocyte Injector (Drummond Scientific, Broomall, PA, USA). After injection, oocytes were incubated at 17 °C in OPS (NaCl, KCl, CaCl2, MgCl2, pH 7.4) supplemented with a mixture of penicillin-streptomycin-anphotericin-B (10,000 IU/mL penicillin, 10 mg/mL streptomycin, and 25 µg amphotericin-B/mL) and amikacin (100 µg/mL). Experiments were performed on oocytes 2 to 6 days after injection.
Electrophysiological recording from oocyte post-injection was made at room temperature using a standard two electrode voltage clamp technique with an automatic multichannel system (HiClamp, Multichannel Systems, Reutlingen, Germany). Oocytes were impaled by two borosilicate capillary glass (Harvard Instrument: 150 TF GC) microelectrodes filled with 3 M KCl (0.3–2.0 MΩ) and voltage-clamped at −60 mV. During recording, oocytes were perfused with OPS (oocytes perfusion solution), as described in the manual of HiClamp. Agonist responses were normalized to the amplitude of the responses induced by 1 mM ACh, which is the maximal ACh concentration at α4β2 nAChRs. Between each successive ACh or compound application, the cell was perfused with OPS solution for 3 min to allow drug clearance and prevent receptor desensitization.

Data set [3] concerns the target T1, human α4β2 nAChR. Conditions: nicotine, included for comparison, no SEM, not in Figure 5; cited from earlier work.
Where [4] appears, read: displacement of 1 nM [3H]cytisine, read-out: α4β2 IC50.
Setting [5] is: Xenopus laevis oocytes, -60 mV, mean ± SEM of four to five experiments, read-out: α4β2 EC50.
The mark [6] stands for this setting: relative to 1 mM ACh, Xenopus laevis oocytes.

Take `CN1CCC[C@H]1COc1cccc(N)c1` (as salt: hydrochloride) [Compound 2, (S)-1-methyl-2-(3′-aminophenoxymethyl)pyrrolidine Ether]: the melting point (in general, the temperature of the solid-liquid transition) was in the range of 198 to 200 °C.
Regarding `CN1CCC[C@H]1COc1ccccc1` [Compound 1, (S)-1-methyl-2-(phenoxymethyl)pyrrolidine Ether], the IC50 (usually the concentration at which inhibition is half-maximal) on human α4β2 nAChR [1] (setting [4]) is 204 ± 6 nM. The EC50 – broadly, the concentration giving half of the maximal effect – at human α4β2 nAChR [2] (setting [5]) amounted to 68800 ± 1300 nM. Further, on human α4β2 nAChR [2] (Xenopus laevis oocytes), the “agonist profile at human α4β2 nAChR” value is on record as “partial agonist”.
For the compound `CN1CCC[C@H]1COc1cccc(N)c1` [Compound 2, (S)-1-methyl-2-(3′-aminophenoxymethyl)pyrrolidine Ether], the IC50 at human α4β2 nAChR [1] (setting [4]) was 13 nM and 13.8 nM. The concentration giving a half-maximal response (EC50) on human α4β2 nAChR [2] (setting [5]) was found to be 10800 ± 700 nM. On human α4β2 nAChR [2] (Xenopus laevis oocytes), the “agonist profile at human α4β2 nAChR” value is reported as “full agonist” and the Imax is recorded as 1.00 ± 0.01. Moreover, the “fold more potent than compound 1 (EC50)” value at human α4β2 nAChR [2] (Xenopus laevis oocytes, ratio of EC50 values) is listed as “about seven-fold”. For the same compound, the Emax at human α4β2 nAChR [2] (setting [6]) turned out to be 100%.
Regarding `CN1CCC[C@H]1COc1cccc(Cl)c1` [Compound 3, (S)-1-methyl-2-(3′-Chlorophenoxymethyl)pyrrolidine Ether], the IC50 on human α4β2 nAChR [1] (setting [4]) is 221 ± 10 nM. In addition, the EC50 on human α4β2 nAChR [2] (setting [5]) was determined as 63300 ± 2100 nM. Further, at human α4β2 nAChR [2] (Xenopus laevis oocytes), the “agonist profile at human α4β2 nAChR” value was “partial agonist” and the Imax is 0.29 ± 0.01. Also, the Emax on human α4β2 nAChR [2] (setting [6]) is 29%.
Consider `CN1CCC[C@H]1COc1cccc(Br)c1` [Compound 4, (S)-1-methyl-2-(3′-bromophenoxymethyl)pyrrolidine Ether], for which the half-maximal inhibitory concentration (IC50) at human α4β2 nAChR [1] (α4β2 IC50, displacement of 1 nM [3H]cytisine) was determined as 188 ± 7 nM. Further, at human α4β2 nAChR [2], the EC50 was determined as 56700 ± 1700 nM and the Emax was 13%. At human α4β2 nAChR [2] (Xenopus laevis oocytes), the “agonist profile at human α4β2 nAChR” value was “partial agonist” and the Imax is 0.13 ± 0.01.
With `CN1CCC[C@H]1c1cccnc1` [Nicotine], the Imax on human α4β2 nAChR [3] is given as 1.00.
